According to the NIST ThermoML archive (doi:10.1016/j.fluid.2014.01.034):

Key:
[1] = Molar enthalpy of transition or fusion; settings: Crystal; DSC
[2] = Boiling temperature at pressure P; settings: Liquid, Ebulliometric method (Recirculating still)
[3] = for mass density: 348.15 K, 101.33 kPa, Liquid, Vibrating tube method; for Normal melting temperature: Crystal, DTA

O=[N+]([O-])c1cccc(Cl)c1Cl [1,2-dichloro-3-nitrobenzene]
Settings	Molar enthalpy of transition or fusion [kcal/mol]	Normal melting temperature [°C]	mass density [kg/m3]
[1]	5.33	–	–
[3]	–	61.8	1533

[2]
Settings	Boiling temperature at pressure P [°C]
3.26 kPa	148.61
3.72 kPa	151.73
4.07 kPa	153.89
5.48 kPa	161.26
6.14 kPa	164.16
7.17 kPa	168.22
8.84 kPa	174
10.02 kPa	177.31
11.41 kPa	180.98
12.61 kPa	183.86
13.71 kPa	186.30
15.55 kPa	190.1
16.52 kPa	191.88
18.33 kPa	195.16
20.52 kPa	198.69
21.66 kPa	200.30
22.76 kPa	201.89
25.1 kPa	205.06
27.58 kPa	208.17
30.63 kPa	211.69
35.11 kPa	216.38
40.91 kPa	221.76
46.97 kPa	226.77
50.86 kPa	229.71
54.85 kPa	232.54
57.81 kPa	234.64
61.11 kPa	236.77
63.43 kPa	238.11
65.25 kPa	239.22
70.98 kPa	242.53
76.92 kPa	245.8
80.62 kPa	247.66
85.76 kPa	250.19
91.3 kPa	252.79
96.08 kPa	254.94
101.3 kPa	257.18

O=[N+]([O-])c1ccc(Cl)c(Cl)c1 [3,4-dichloro-1-nitrobenzene]
Settings	Molar enthalpy of transition or fusion [kcal/mol]	Normal melting temperature [°C]	mass density [kg/m3]
[1]	4.24	–	–
[3]	–	42.2	1533

[2]
Settings	Boiling temperature at pressure P [°C]
3.01 kPa	143.59
4.22 kPa	151.87
4.98 kPa	156.10
5.82 kPa	160.09
6.97 kPa	164.90
7.4 kPa	166.54
9.08 kPa	172.28
9.77 kPa	174.29
11.5 kPa	178.94
12.15 kPa	180.66
13.41 kPa	183.46
15.01 kPa	186.98
16.24 kPa	189.28
17.48 kPa	191.66
19.68 kPa	195.37
21.06 kPa	197.53
24.35 kPa	202.28
25.56 kPa	203.78
26.76 kPa	205.32
31.46 kPa	210.79
34.27 kPa	213.8
36.87 kPa	216.33
41.72 kPa	220.8
45.99 kPa	224.32
51.49 kPa	228.52
55.34 kPa	231.23
61.61 kPa	235.37
65.28 kPa	237.58
70.2 kPa	240.51
74.34 kPa	242.70
79.67 kPa	245.50
83.95 kPa	247.64
89.76 kPa	250.37
94.77 kPa	252.61
98.14 kPa	254.08
101.3 kPa	255.44
